Data reported in the supplement of paper PMC10307832.

Experiments:
Test in all cases: relative viability (nuclei count vs DMSO), 5 days (fraction); higher = more cells survive
[1] = compound: CC1=CC=C(C=C1)C(=O)CN2C3=C(CCCC3)SC2=N [Pifithrin_alpha] + CCNC(=O)c1noc(-c2cc(C(C)C)c(O)cc2O)c1-c1ccc(CN2CCOCC2)cc1 [Luminespib] (partner 0.01 µM)
Method in brief: (§1)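 Lung cancer cell lines were seeded in 1536-well plates and dosed by pin tool the next day, with either a single drug or a fixed anchor-drug dose combined with five library-drug doses (not always all listed) spaced in √10 steps. Five days later, one step fixed the cells and stained their nuclei (final 0.05% Triton X-100, 1% formaldehyde, 1 ug/ml Hoechst), and nuclei were counted on 4× images. Relative viability is the nuclei count in treated wells divided by the count in vehicle wells, and each value is the median of duplicate plates.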

[2] = compound: CC1=CC=C(C=C1)C(=O)CN2C3=C(CCCC3)SC2=N [Pifithrin_alpha] + CS(=O)(=O)N1CCN(Cc2cc3nc(-c4cccc5[nH]ncc45)nc(N4CCOCC4)c3s2)CC1 [Pictilisib] (partner 1 µM)
Method in brief: as §1

Bemcentinib + Trametinib = compound: Nc1nc(Nc2ccc3c(c2)CC[C@@H](N2CCCC2)CC3)nn1-c1cc2c(nn1)-c1ccccc1CCC2 [Bemcentinib] + CC(=O)Nc1cccc(-n2c(=O)n(C3CC3)c(=O)c3c(Nc4ccc(I)cc4F)n(C)c(=O)c(C)c32)c1 [Trametinib] (partner 0.02 µM)
Method in brief: as §1

[3] = compound: CC1=CC=C(C=C1)C(=O)CN2C3=C(CCCC3)SC2=N [Pifithrin_alpha] + CC(C)C[C@H](NC(=O)[C@H](Cc1ccccc1)NC(=O)c1cnccn1)B(O)O [Bortezomib] (partner 0.002 µM)
Method in brief: as §1

Cell Line	relative viability ([1]; first compound 1 µM)	relative viability ([1]; first compound 3.162 µM)	relative viability ([1]; first compound 10 µM)	relative viability ([1]; first compound 31.62 µM)	relative viability ([1]; first compound 100 µM)	relative viability ([2]; first compound 1 µM)	relative viability ([2]; first compound 3.162 µM)	relative viability ([2]; first compound 10 µM)	relative viability ([2]; first compound 31.62 µM)	relative viability ([2]; first compound 100 µM)	relative viability (Bemcentinib + Trametinib; first compound 0.04 µM)	relative viability (Bemcentinib + Trametinib; first compound 0.1265 µM)	relative viability (Bemcentinib + Trametinib; first compound 0.4 µM)	relative viability (Bemcentinib + Trametinib; first compound 1.265 µM)	relative viability (Bemcentinib + Trametinib; first compound 4 µM)	relative viability ([3]; first compound 1 µM)	relative viability ([3]; first compound 3.162 µM)	relative viability ([3]; first compound 10 µM)	relative viability ([3]; first compound 31.62 µM)	relative viability ([3]; first compound 100 µM)
SK-MES-1	0.644	0.698	0.478	0.262	0.286	0.392	0.32	0.33	0.293	0.237	0.625	0.587	0.561	0.587	0.61	–	–	–	–	–
NCI-H1648	–	–	–	–	–	–	–	–	–	–	0.636	0.455	0.477	0.481	0.408	–	–	–	–	–
PC-3 [JPC-3]	0.74	0.779	0.63	0.635	0.587	0.547	0.757	0.629	0.569	0.597	0.664	0.775	0.725	0.632	0.636	0.819	0.877	0.77	0.583	0.613
NCI-H1666	1.05	1.01	0.877	0.821	0.645	0.351	0.296	0.277	0.238	0.293	0.972	0.954	0.926	1.01	0.925	0.635	0.472	0.465	0.404	0.28
IA-LM	–	–	–	–	–	0.369	0.298	0.312	0.344	0.291	–	–	–	–	–	0.984	0.415	0.281	0.33	0.339
HCC-78	–	–	–	–	–	0.134	0.218	0.174	–	0.196	0.735	0.746	0.936	0.809	0.801	0.415	0.394	0.472	0.418	0.477
HCC-366	–	–	–	–	–	0.105	0.106	0.136	0.136	0.112	0.368	0.428	0.407	0.409	0.419	1.33	0.706	1.07	–	1.1
NCI-H520	0.213	0.21	0.24	–	0.223	0.27	0.311	0.301	0.269	0.285	0.723	0.859	0.706	0.713	0.733	0.64	0.771	0.567	0.386	0.739
NCI-H1355	0.642	0.496	0.516	0.401	0.409	0.195	0.363	0.311	0.257	0.337	0.407	0.414	0.462	0.405	0.509	1.17	1.04	0.954	0.789	1.03
SW 1573	0.245	0.214	0.188	–	0.175	0.596	0.595	0.59	0.438	0.491	0.521	0.488	0.658	0.572	0.654	1.01	0.98	1.13	0.899	1.14
COR-L 105	0.675	0.763	0.547	0.62	0.685	0.324	0.377	0.415	0.33	0.458	0.453	0.48	0.458	0.39	0.377	0.725	0.615	0.856	0.629	0.632
COR-L23	0.703	0.865	0.562	–	0.484	0.736	0.75	0.731	–	0.695	0.569	0.696	0.66	0.641	0.658	1.01	0.928	0.973	–	0.908
NCI-H322M	0.865	0.868	0.841	0.647	0.766	0.54	0.45	0.503	0.44	0.428	0.477	0.534	0.496	0.504	0.51	1.19	1.07	1.29	1.26	1.03
NCI-H2347	0.921	0.541	0.392	0.288	0.254	0.754	0.145	0.753	0.408	0.6	0.254	0.312	0.232	0.307	0.302	0.695	–	0.855	0.814	0.874
RERF-LC-KJ	1.3	1.25	0.959	0.512	0.44	0.535	0.397	0.503	0.451	0.432	0.953	0.968	0.863	0.818	0.96	0.798	0.855	1.07	1	0.721
NCI-H2228	0.145	0.15	0.178	0.149	0.124	0.516	0.352	0.434	0.294	0.303	0.202	0.652	0.533	0.651	0.565	0.919	1.03	0.926	0.86	0.722
A549	–	–	–	–	–	0.703	0.586	0.435	0.434	0.342	–	–	–	–	–	–	–	–	–	–
NCI-H358	0.462	0.478	0.26	0.247	0.324	0.276	0.346	0.368	0.333	0.317	0.12	0.125	0.118	0.134	0.145	–	–	–	–	–
NCI-H2342	0.653	0.665	0.699	0.773	0.71	–	–	–	–	–	0.897	0.904	0.895	0.988	0.88	–	–	–	–	–
